From US20100112561A1, “FLUORESCENT NUCLEOSIDE ANALOGUES” (priority 2006, published 2010)

Legend:
[1] = biological target: T1, human 2′-deoxycytidine kinase (dCK) (Homo sapiens, UniProt P27707); experiment: spectrophotometric coupled-enzyme kinase assay, dCK; type: biochemical; settings: FIG. 10A
T1 construct: made in house; host or cells: E. coli, pET-14b (Novagen)
From the text: (§1) To investigate the kinetic properties of the above-described fNAs in vitro, a pET-based protein overexpression system was established for the production and purification of milligram quantities of individual dNKs. The genes for human 2′-deoxycytidine kinase (dCK) and fruitfly dNK (DmdNK), as well as the thymidine kinase from the bacterium Thermotoga maritime (TmTK) were subcloned into pET-14b (Novagen), an IPTG-inducible protein overexpression system that also introduces a poly-His tag at the target protein's amino terminus. […]
A quantitative measurement of individual enzymes' substrate specificity is possible via the determination of the kinetic parameters KM and kcat. […]
(§2) Experimentally, the kinase-catalyzed phosphotransfer reaction was monitored at 37° C. via a spectrophotometric, couple-enzyme assay (as described in Munch-Petersen, B., Knecht, W., Lenz, C., Sondergaard, L. and Piskur, J. (2000) functional expression of a multisubstrate deoxyribonucleoside kinase from Drosophila melanogaster and its C-terminal deletion mutants. J Bio chem, 275, 6673-6679; Schelling, P., Folkers, G. and Schapozza, L. (2001) A spectrophotometric assay for quantitative determination of kcat of herpes simplex virus type 1 thymidine kinase substrates. Anal Biochem, 295, 82-87, which are hereby incorporated by reference herein). […] The consumption of NADH can be monitored spectrophotometrically at 340 nm. […]

[2] = test system: E. coli KY895 with pDIM-tDmdNK and TOP10 with pBAD-tDmdNK; experiment: fNA accumulation by fluorescence microscopy, bacteria expressing DmdNK; type: cell-based; settings: plasmid-encoded exogenous DmdNK, both strains, FIG. 8
From the text: FIG. 8 illustrates the fluorescence microscopy of E. coli KY895 with pDIM-tDmdNK (left) and TOP10 with pBAD-tDmdNK (right) in the presence of 1 (100× magnification; excitation: Hg-lamp at 325 nm). Noticeable in the two images of FIG. 8 is the highly variable fluorescence intensity in the E. coli KY895/pDIM sample, caused by disproportionate expression levels of the lac-promoter system. On the contrary, the arabinose-controlled pBAD system in E. coli TOP10 facilitates steadier kinase expression levels, resulting in a more uniform fluorescence signal.

[3] = test system: E. coli expressing DmdNK from pDIM, pBAD or pET vectors; experiment: flow cytometry (FACS) of E. coli overexpressing DmdNK; type: cell-based; settings: pDIM vector in E. coli KY895, FIG. 9
Description: In a typical flow cytometry experiment, bacterial cultures are grown to mid-log phase and protein expression is induced for 4 h, followed by the addition of the fN or fNA to the culture broth. Cells are incubated for another 2 h prior to centrifugation and three wash-cycles with PBS buffer to reduce the fluorescence background. Cultures are then analyzed on a Becton Dickinson FACSVantage SE, equipped with a UV laser.
Several experiments were conducted to validate the design for a FACS-based high-throughput screening system for engineered dNKs. A first set of experiments addressed three main questions: a) what is an appropriate host/expression system for kinases in conjunction with fNAs (FIG. 9), b) are the fluorescent properties of the above-described fNAs sufficient for FACS, and c) what is the dynamic range of this screening system? […] In contrast, both the pET and pBAD system yield populations with a more significant portion of “positives”, cells with 10 to 20-fold higher fluorescence than background.

[4] = biological target: T2, thymidine kinase from Thermotoga maritima (TmTK) (Thermotoga maritima, UniProt Q9WYN2); experiment: kinetic experiments with type-II kinases; type: biochemical
T2 construct: made in house; host or cells: E. coli, pET-14b (Novagen)
T2 sequence (Q9WYN2 whole entry): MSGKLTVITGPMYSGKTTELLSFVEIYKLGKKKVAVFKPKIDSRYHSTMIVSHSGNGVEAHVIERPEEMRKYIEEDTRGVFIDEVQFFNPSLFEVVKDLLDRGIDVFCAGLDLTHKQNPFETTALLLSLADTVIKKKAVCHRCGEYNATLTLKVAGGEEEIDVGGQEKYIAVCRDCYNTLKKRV
From the text: as §1, §2

[5] = test system: E. coli TOP10 and E. coli KY895; experiment: fNA uptake by fluorescence microscopy, strains without exogenous kinase; type: cell-based; settings: both strains, no exogenous type-I kinase
Description: To validate the accumulation of the fluorescent nucleotides inside bacterial cells, a series of fNA-uptake experiments was conducted in two E. coli strains. The E. coli TOP10 (Invitrogen) carries a native type-II thymidine kinase while E. coli KY895 is a thymidine kinase-deficient laboratory strain.

[6] = biological target: T3, 2′-deoxyribonucleoside kinase from Drosophila melanogaster (DmdNK) (Drosophila melanogaster, UniProt Q9XZT6); experiment: spectrophotometric coupled-enzyme kinase assay, DmdNK; type: biochemical; settings: wild type DmdNK, kcat/KM data FIG. 10A/11A, agrees with FACS FIG. 11B
T3 construct: made in house; host or cells: E. coli, pET-14b (Novagen)
T3 sequence (Q9XZT6 1-250): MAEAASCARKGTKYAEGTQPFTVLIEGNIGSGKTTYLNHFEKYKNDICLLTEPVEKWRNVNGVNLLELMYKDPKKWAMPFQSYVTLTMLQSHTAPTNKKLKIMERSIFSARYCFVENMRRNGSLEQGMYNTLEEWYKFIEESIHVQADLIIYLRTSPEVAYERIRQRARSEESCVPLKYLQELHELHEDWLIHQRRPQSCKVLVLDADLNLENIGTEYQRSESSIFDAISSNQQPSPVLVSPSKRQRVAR
From the text: To investigate the kinetic properties of the above-described fNAs in vitro, a pET-based protein overexpression system was established for the production and purification of milligram quantities of individual dNKs. The genes for human 2′-deoxycytidine kinase (dCK) and fruitfly dNK (DmdNK), as well as the thymidine kinase from the bacterium Thermotoga maritime (TmTK) were subcloned into pET-14b (Novagen), an IPTG-inducible protein overexpression system that also introduces a poly-His tag at the target protein's amino terminus. Following protein overexpression, the tag enables one-step purification of the corresponding proteins on Ni-affinity resin, yielding enzyme of >95% purity as determined by SDS-PAGE. This protein overexpression system was successfully applied for the listed wild type kinases above, as well as for isolating engineered enzymes.
A quantitative measurement of individual enzymes' substrate specificity is possible via the determination of the kinetic parameters KM and kcat. Consistent with the literature, each kinase will be described by its relative activity for a fNA in comparison to its corresponding NA and thymidine: kcat(fNA)/kcat(NA), as well as by its relative catalytic efficiency: kcat/KM(fNA)/kcat/KM(NA). […]
as §2

T1 sequence (P27707 whole entry): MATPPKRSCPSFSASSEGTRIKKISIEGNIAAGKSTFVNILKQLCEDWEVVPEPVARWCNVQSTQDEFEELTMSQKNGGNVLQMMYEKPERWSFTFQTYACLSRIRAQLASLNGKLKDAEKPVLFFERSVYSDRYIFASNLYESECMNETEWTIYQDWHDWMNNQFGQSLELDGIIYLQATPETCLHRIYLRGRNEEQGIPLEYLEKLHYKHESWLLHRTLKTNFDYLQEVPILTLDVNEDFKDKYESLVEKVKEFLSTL

substrate activity / phosphorylation by DmdNK [6] | SMILES | substrate activity / phosphorylation by dCK [1] | accumulation of fluorescent probe inside cells [2] | fluorescent cell population [3] | phosphorylation by type-II kinases [4] | fluorescence signal in cells [5]
only background phosphorylation | Cc1cc2cn(C3CC(N=[N+]=[N-])C(CO)O3)c(=O)nc2o1 (centres unmarked) [compound 16, 3-(4-azido-5-(hydroxymethyl)-tetrahydrofuran-2-yl)-6-methylfuro[2,3-d]pyrimidin-2(3H)-one] | – | – | – | – | –
no detectable activity | Cc1cc2cn(C3CCC(CO)O3)c(=O)nc2[nH]1 (centres unmarked) [compound 25, 3-(5-(hydroxymethyl)-tetrahydrofuran-2-yl)-6-methyl-3H-pyrrolo[2,3-d]pyrimidin-2(7H)-one] | – | – | – | – | –

SMILES | substrate activity / phosphorylation by DmdNK [6] | substrate activity / phosphorylation by dCK [1] | accumulation of fluorescent probe inside cells [2] | fluorescent cell population [3] | phosphorylation by type-II kinases [4] | fluorescence signal in cells [5]
Cc1cc2cn([C@H]3C[C@H](O)[C@@H](CO)O3)c(=O)nc2o1 [compound 1, 6-methyl-3-(β-D-2′-deoxyribofuranosyl)furano-[2,3-d]pyrimidin-2-one] | strong activity and good substrate and good | no activity | accumulation of the fluorescent probe inside both strains | small subpopulation with fluorescence above background | no detectable phosphorylation | no fluorescence signal beyond the cellular autofluorescence
